Laboratory results reported in patent US20240300957A1, “TETRAZOLE-SUBSTITUTED ETHYL-SULFONE / SULFOXIMINE-PYRIDINE DERIVATIVES” (Boehringer Ingelheim Vetmedica GmbH, priority 2023, published 2024).

How the values were obtained:
adult C. felis fleas = assay: Ingestion activity against adult Ctenocephalides felis (artificial membrane feeding, bovine blood); format: in vivo; conditions: bovine blood via artificial membrane, motility 48 h post treatment, read-out: EC50 (ingestion activity, % motility reduction)
Protocol: Example 6: Screening Method to Test Ingestion Activity of Compounds of Formula (I), (Ia) or (Ib) Against Adult Ctenocephalides felis Compounds of formula (I), (Ia) and (Ib) dissolved in 100% DMSO are added to bovine blood and offered via an artificial membrane feeding system to adult C. felis fleas. The motility of fleas is then visually inspected 48 h post treatment. Efficacy is expressed in % motility reduction compared to controls containing blood treated with DMSO only. A dose response series is implemented to determine EC50 values.

Plutella xylostella = assay: Insecticidal test on Plutella xylostella (Chinese cabbage seedling dip); format: in vivo; conditions: 144 h, 6 days after dip treatment, 25° C., read-out: activity level (corrected mortality rate)
Protocol: Example 14: Insecticidal Test on Plutella xylostella
The compounds of formula (I), (Ia) and (Ib) of the present invention or salts thereof are separately dispersed in water and diluted to 50 ppm. Ten adults of Plutella xylostella are released onto Chinese cabbage seedlings and allowed to lay eggs thereon. 2 days after the release of the adults, the seedling is dipped in the dispersion for about 30 seconds. After air dried, the seedling is kept in a room at 25° C. 6 days after the dip treatment, the numbers of the dead and alive insects are counted. The corrected mortality rate is calculated according to the following formula and the insecticidal activity was evaluated according to the following criteria.
[formula] • A: the corrected mortality rate is 100% • B: the corrected mortality rate is 90 to 99% • C: the corrected mortality rate is 80 to 89% • D: the corrected mortality rate is 50 to 79%

[1] = system: 3rd-instar nymphs of Laodelphax striatellus; assay: Insecticidal test on Laodelphax striatellus (rice seedling dip); format: in vivo; conditions: 192 h, 8 days after inoculation, 25° C., read-out: activity level (corrected mortality rate)
[2] = system: 2nd-instar larvae of Spodoptera litura; assay: whole plant or invertebrate; conditions: in Brassica oleracea, foliar, 192 h, read-out: activity level (corrected mortality rate)
[3] = system: adult Ctenocephalides felis fleas; assay: Contact activity against adult Ctenocephalides felis (coated pipe cleaner in vial); format: in vivo; conditions: adult C. felis, mortality at 72 hours post-treatment, 22° C., 80% relative humidity, read-out: EC50 (contact activity, percentage mortality)
Protocol: Example 4: Screening Method to Test Contact Activity of Compounds of Formula (I), (Ia) or (Ib) Against Adult Ctenocephalides felis
Compounds of formula (I), (Ia) and (Ib) dissolved in 100% DMSO are diluted in acetone to a desired concentration. The resulting formulation is used to coat the fibers of a 0.5-inch-long piece of pipe cleaner placed in a glass scintillation vial. The vial is capped with a rubber gasket and filter paper insert. After the acetone has evaporated, ten adult Ctenocephalides felis fleas are added to each vial. The vials are then incubated at 22° C., 80% relative humidity, and 12 hours of light/12 hours of dark until a visual evaluation for mortality is performed at 72 hours post-treatment. Compound efficacy at a given dose is expressed as percentage mortality and adjusted to remove background mortality observed in control vials containing DMSO only. A dose response series of treated vials is implemented to determine EC50 values.

[4] = system: adult R. sanguineus ticks; assay: Contact activity against adult Rhipicephalus sanguineus (coated vial); format: in vivo; conditions: mortality at 48 hours post-treatment, 24° C., 95% relative humidity, read-out: EC50 (contact activity, percentage mortality)
Protocol: Screening Method to Test Contact Activity of Compounds of Formula (I), (Ia) or (Ib) Against Adult Rhipicephalus Sanguineus Compounds of formula (I), (Ia) and (Tb) formulated in 100% DMSO are diluted in a solution containing acetone and Triton X-100 (0.02%). The resulting formulation is used to coat the inner walls of glass scintillation vials and the filter paper covering the cap of the vial. Once dried, ten adult R. sanguineus ticks are added to the vials. The vials are incubated at 24° C., 95% relative humidity, and 12 hours of light/12 hours of dark until evaluation. Ticks are visually evaluated for mortality at 48 hours post-treatment. Compound efficacy at a given dose is expressed as percentage mortality. A dose response series is implemented to determine EC50 values.

EC50 (adult C. felis fleas) [µM] | SMILES | mortality at 50 ppm (Plutella xylostella) [%] | mortality at 50 ppm [1] [%] | mortality at 50 ppm [2] [%] | EC50 [3] [µM] | EC50 [4] [µM]
10 to 100 | CCS(=O)(=O)c1cc(-n2nnnc2C)cnc1-c1nc2cc(C(F)(F)C(F)(F)F)nnc2n1C [Compound 12] | – | – | – | – | –
10 to 100 | CCS(=O)(=O)c1cc(-c2nnn(C)n2)cnc1-c1nc2cc(C(F)(F)C(F)(F)F)nnc2n1C [Compound 7, 6-[3-ethylsulfonyl-5-(2-methyltetrazol-5-yl)-2-pyridyl]-7-methyl-3-(1,1,2,2,2-pentafluoroethyl)imidazo[4,5-c]pyridazine] | – | – | – | < 10 | 10 to 100
10 to 100 | CCS(=O)(=O)c1cc(-n2nnnc2C2CC2)cnc1-c1nc2cc(C(F)(F)C(F)(F)F)nnc2n1C [Compound 2, 6-[5-(5-cyclopropyltetrazol-1-yl)-3-ethylsulfonyl-2-pyridyl]-7-methyl-3-(1,1,2,2,2-pentafluoroethyl)imidazo[4,5-c]pyridazine] | – | – | – | – | –
10 to 100 | CCS(=O)(=O)c1cc(-c2nnn(C)n2)cnc1-c1ncc(C(=O)NCC(F)(F)F)n1C [Compound 8] | – | – | – | – | –
< 10 | CCn1nnnc1-c1cnc(-c2nc3cc(C(F)(F)C(F)(F)F)nnc3n2C)c(S(=O)(=O)CC)c1 [Compound 6] | – | – | – | – | –

Second part, the molecule before the results:

SMILES | EC50 (adult C. felis fleas) [µM] | mortality at 50 ppm (Plutella xylostella) [%] | mortality at 50 ppm [1] [%] | mortality at 50 ppm [2] [%] | EC50 [3] [µM] | EC50 [4] [µM]
CCS(=O)(=O)c1cc(-c2nnn(C)n2)cnc1-c1nc2cc(S(=O)(=O)C(F)(F)F)nnc2n1C [Compound 9] | < 10 | 100 | 100 | 100 | – | –
CCS(=O)(=O)c1cc(-c2nnnn2C2CC2)cnc1-c1nc2cc(C(F)(F)C(F)(F)F)nnc2n1C [Compound 1, 6-[5-(1-cyclopropyltetrazol-5-yl)-3-ethylsulfonyl-2-pyridyl]-7-methyl-3-(1,1,2,2,2-pentafluoroethyl)imidazo[4,5-c]pyridazine] | < 10 | 100 | 100 | – | – | 10 to 100
CCS(=O)(=O)c1cc(-c2nnnn2-c2ccccc2)cnc1-c1nc2cc(C(F)(F)C(F)(F)F)nnc2n1C [Compound 16] | – | 100 | – | – | – | –
CCS(=O)(=O)c1cc(-c2nnn(C(C)C)n2)cnc1-c1nc2cc(C(F)(F)C(F)(F)F)nnc2n1C [Compound 10] | – | 100 | 100 | – | – | < 10
CCS(=O)(=O)c1cc(-c2nnnn2C)cnc1-c1nc2cc(C(F)(F)C(F)(F)F)cnc2n1C [Compound 15] | < 10 | 100 | – | – | – | –
CCS(=O)(=O)c1cc(-c2nnn(C)n2)cnc1-c1nc2cc(C(F)(F)C(F)(F)F)cnc2n1C [Compound 14] | < 10 | 100 | – | 100 | 10 to 100 | 10 to 100
CCS(=O)(=O)c1cc(-c2nnnn2C)cnc1-c1nc2cc(C(F)(F)C(F)(F)F)nnc2n1C [Compound 4] | < 10 | – | 100 | – | – | –
